The target in the experiment is TrkA (Homo sapiens (Human), UniProt P04629). In words: TrkA Omnia Assay. Format: biochemical. Conditions: averaged IC50; 20 nM enzyme, 500 μM ATP, 10 μM peptide substrate. An outline of the steps:
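Continuous fluorescent kinase read-out (ex 360 nm, em 485 nm) over 70 min, with initial rates fitted to 4- or 5-parameter logistic curves for IC50. Final conditions: 500 μM ATP, 10 μM Omnia Tyr Peptide #4, 20 nM TrkA, MOPS pH 7.5 buffer with MgCl2 and Triton X-100; enzyme and compound preincubated 10 min at ambient temperature.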

Structures can show the parent of a compound that is named as a salt.

Chain of TrkA (P04629 33-796): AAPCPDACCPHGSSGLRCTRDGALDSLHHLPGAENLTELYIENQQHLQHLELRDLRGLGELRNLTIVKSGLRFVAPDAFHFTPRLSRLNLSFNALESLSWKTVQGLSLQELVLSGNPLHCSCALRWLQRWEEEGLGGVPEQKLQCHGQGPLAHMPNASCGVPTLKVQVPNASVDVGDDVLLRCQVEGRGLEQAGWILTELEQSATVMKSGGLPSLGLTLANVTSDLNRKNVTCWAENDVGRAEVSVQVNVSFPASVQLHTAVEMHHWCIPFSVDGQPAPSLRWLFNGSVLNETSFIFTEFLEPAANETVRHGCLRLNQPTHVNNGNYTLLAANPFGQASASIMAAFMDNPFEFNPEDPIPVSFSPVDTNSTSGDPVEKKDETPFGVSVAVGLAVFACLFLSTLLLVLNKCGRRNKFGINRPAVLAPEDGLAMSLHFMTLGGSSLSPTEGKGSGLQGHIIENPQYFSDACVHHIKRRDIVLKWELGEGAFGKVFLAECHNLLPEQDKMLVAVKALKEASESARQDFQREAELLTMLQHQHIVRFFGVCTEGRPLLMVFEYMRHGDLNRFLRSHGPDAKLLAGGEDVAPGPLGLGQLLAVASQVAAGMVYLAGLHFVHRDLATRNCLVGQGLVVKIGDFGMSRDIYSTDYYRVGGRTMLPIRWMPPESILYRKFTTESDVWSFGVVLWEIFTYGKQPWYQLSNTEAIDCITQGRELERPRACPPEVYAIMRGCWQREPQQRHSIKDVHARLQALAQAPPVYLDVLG

Broadly, the IC50 is the concentration needed to halve the response being measured. A low value points to inhibition by little substance. For the compound `COCCN1C[C@@H](NC(=O)Nc2c(Br)c(C3CCN(C(C)=O)CC3)nn2-c2ccccc2)[C@H](c2ccc(F)c(F)c2)C1` [Example 593, 1-(3-(1-acetylpiperidin-4-yl)-4-bromo-1-phenyl-1H-pyrazol-5-yl)-3-((3S,4R)-4-(3,4-difluorophenyl)-1-(2-methoxyethyl)pyrrolidin-3-yl)urea], the IC50 was under 100 nM.
In the case of `COCCN1C[C@@H](NC(=O)Nc2c3c(nn2-c2ccccc2)CN(C(C)=O)C3)[C@H](c2ccccc2)C1` [Example 159, 1-(5-acetyl-2-phenyl-2,4,5,6-tetrahydropyrrolo[3,4-c]pyrazol-3-yl)-3-((3S,4R)-1-(2-methoxyethyl)-4-phenylpyrrolidin-3-yl)urea], the IC50 fell in the range of 100 to 1000 nM.
The result for `COCCN1C[C@@H](NC(=O)Nc2c(C)c(OCC#N)nn2-c2ccccc2)[C@H](c2ccc(F)c(F)c2)C1` [Example 141, 1-(3-(cyanomethoxy)-4-methyl-1-phenyl-1H-pyrazol-5-yl)-3-((3S,4R)-4-(3,4-difluorophenyl)-1-(2-methoxyethyl)pyrrolidin-3-yl)urea] reads under 100 nM; that for `COCCN1C[C@@H](NC(=O)Nc2c(C)c(OC[C@H](C)O)nn2-c2ccccc2)[C@H](c2cc(F)cc(F)c2)C1` [Example 537, 1-((3S,4R)-4-(3,5-difluorophenyl)-1-(2-methoxyethyl)pyrrolidin-3-yl)-3-(3-((S)-2-hydroxypropoxy)-4-methyl-1-phenyl-1H-pyrazol-5-yl)urea dihydrochloride], under 100 nM.
The figure for `COCCN1C[C@@H](NC(=O)Nc2c(C)c(OC[C@H](COC)O[Si](C)(C)C(C)(C)C)nn2-c2ccccc2)[C@H](c2ccc(F)c(F)c2)C1` [Example 402, 1-(3-((S)-2-(tert-butyldimethylsilyloxy)-3-methoxypropoxy)-4-methyl-1-phenyl-1H-pyrazol-5-yl)-3-((3S,4R)-4-(3,4-difluorophenyl)-1-(2-methoxyethyl)pyrrolidin-3-yl)urea_] is 100 to 1000 nM.
The figure for `COCCN1C[C@@H](NC(=O)Nc2c(C)c(-c3cc(C)n(C)n3)nn2-c2ccccc2)[C@H](c2ccc(F)cc2)C1` [Example 307, 1-((3S,4R)-4-(4-fluorophenyl)-1-(2-methoxyethyl)pyrrolidin-3-yl)-3-(1′,4,5′-trimethyl-1-phenyl-1H,1′H-[3,3′-bipyrazol]-5-yl)urea] is under 100 nM.
`Cc1c(OC[C@H](O)CO)nn(-c2ccccc2)c1NC(=O)N[C@@H]1CN(c2cn[nH]c2)C[C@H]1c1ccc(F)c(F)c1` [Example 222, 1-((3S,4R)-4-(3,4-difluorophenyl)-1-(1H-pyrazol-4-yl)pyrrolidin-3-yl)-3-(3-((R)-2,3-dihydroxypropoxy)-4-methyl-1-phenyl-1H-pyrazol-5-yl)urea] gave a half-maximal inhibitory concentration (IC50) of under 100 nM.
The result for `COCCN1C[C@@H](NC(=O)Nc2c(C)c(-c3ccn(C)c(=O)c3)nn2-c2ccccc2)[C@H](c2ccc(F)cc2)C1` [Example 532, 1-((3S,4R)-4-(4-fluorophenyl)-1-(2-methoxyethyl)pyrrolidin-3-yl)-3-(4-methyl-3-(1-methyl-2-oxo-1,2-dihydropyridin-4-yl)-1-phenyl-1H-pyrazol-5-yl)urea] reads under 100 nM; that for `CSCCN1C[C@@H](NC(=O)Nc2c3c(nn2-c2ccccc2)CCC3)[C@H](c2ccccc2)C1` (relative stereo) [Example 183, 1-(trans-1-(2-(methylthio)ethyl)-4-phenylpyrrolidin-3-yl)-3-(2-phenyl-2,4,5,6-tetrahydrocyclopenta[c]pyrazol-3-yl)urea], 100 to 1000 nM.
The result for `COCCN1C[C@@H](NC(=O)Nc2cc(-c3ccc(C#N)cc3)nn2C)[C@H](c2ccc(F)c(F)c2)C1` [Example 60, 1-(3-(4-cyanophenyl)-1-methyl-1H-pyrazol-5-yl)-3-((3S,4R)-4-(3,4-difluorophenyl)-1-(2-methoxyethyl)pyrrolidin-3-yl)urea] reads under 100 nM.

The record behind these values is patent US10323022B2, “Pyrrolidinyl urea, pyrrolidinyl thiourea and pyrrolidinyl guanidine compounds as TrkA kinase inhibitors” (Array BioPharma Inc., priority 2011, dated 2019).
